Patent publication US11179452B2, “Antigen specific multi epitope vaccines” (priority 2006, dated 2021)
No end group written: not given here.

Assays:
Type in all cases: cell-based, human
[1] = test system: blood samples derived from naive donors; experiment: Summary: ImMucin specific activation in blood samples of naive donors; settings: out of 14 different blood samples from naive donors
Text: In summary, out of 14 different blood samples derived from naive donors, in 12 ImMucin specific activation could be observed. It is therefore clear that ImMucin is able to induce antigen specific CD4^+ as well as CD8^+ T cell activation which can lead to effective anti-tumor vaccine properties including lysis, cytokine release and memory in the majority of the population.

[2] = test system: PBL; experiment: Proliferation of PBL, direct presentation of peptide without APC
Method: In all three methods, plates were cultured for 3-5 days under visual control and then 0.5 □Cu/well of 3[H] (Amersham) was added for additional culture of to 18 h at 37° C. […] DC indirect presentation: In the first method, 100 µl of 2×10^6 thawed PBL were placed in U-shape Bottom 96 well plate (Nunc) with RPMI medium supplemented with 5% H AB serum, L-Glutamine, Sodium Pyruvate, MEM-EAGLE non-essential amino-acids, HEPES and Gentamycin. At the next stage 100 µl of 25×10^4 peptide-pulsed DC were added to each three wells of PBL and underwent proliferation analysis as described above. • 2. PBL direct presentation: In the 2nd method, 100 µl of 2×10^6 PBL were placed in Flat Bottom 96 well plates (Corning) and stimulated with different concentrations (0.05 ug/ml-2 ug/ml) of peptides. In the next step the cells underwent proliferation analysis as described above. • 3. PBMC direct presentation: In third method PNMC were used under similar conditions as described for the second method.
Direct presentation of peptides to PBL without any APC

[3] = test system: PBLs (CD4+, CD8+, CD45RO+ T cells); experiment: FACS analysis of T cell phenotype during repeated stimulation with ImMucin (FIG. 2)
Text: Thawed PBLs underwent 1st stimulation with ImMucin pulsed Autologues DC at a ratio of 20:1 and cultured for 7 days in dedicated T cell Medium. T cell medium contained RPMI medium supplemented with 10% FCS, L-Glutamine, Sodium Pyruvate, MEM-EAGLE non-essential amino-acids, HEPES and Gentamycin Sulphate (Bet-Haemek Industries, IL) as well as with 50 IU/ml of recombinant IL-7 (Cytolab IL). For the second stimulation, PBL were transferred to adherent autologues ImMucin-pulsed PBMC and cultured for additional 5 days in T cell Medium. At the end of the 5 days, medium was partial replaced with fresh medium containing 1 ug/ml of ImMucin and 50 IU/ml IL-2 for a third stimulation of 48 h at 37° C. Following the last stimulation ImMucin T cell line was checked for immune activation properties.
For FACS analysis, PBLs were suspended at a final concentration of 20×10^6 and 50 µl were transfer into FACS tube (Falcon) in Blocker solution (PBS with 3% FCS and 0.1% Sodium Azide). 10 µl of fluorochrome-conjugate anti-CD4, anti-CD8, and anti-CD45RO (eBioscience) were added for 30 min on ice at 0° C. in the Dark. After the incubation cell were washed with 2 ml of the blocker solution and re suspended in 0.5 ml of Phosphate buffer saline (PBS). Samples were analyzed in a FACS-sort machine (BD) for positive florescence.
The ability of ImMucin to propagate a subpopulation of CD4^+ and CD8^+ T cells was further analyzed, and in particular the ability of ImMucin to transform naive CD4^+ and CD8^+ T cells into memory cells. This property was evaluated in a FACS analysis measuring the CD45RO^+ marker for memory T cells on CD4^+ and CD8^+ subpopulations (FIG. 2).

[4] = test system: lymphocytes from naive donors; experiment: Proliferation assay, kinetics of lymphocyte activation as summarised in text (presentation mode not stated); settings: summary of five experiments
Method: Proliferation analysis was conducted in three different methods. In all three methods, plates were cultured for 3-5 days under visual control and then 0.5 […]Cu/well of 3[H] (Amersham) was added for additional culture of to 18 h at 37° C. In the last step, plates were harvested and the radioactive counts were measured in a □ counter. • 1. DC indirect presentation: In the first method, 100 µl of 2×10^6 thawed PBL were placed in U-shape Bottom 96 well plate (Nunc) with RPMI medium supplemented with 5% H AB serum, L-Glutamine, Sodium Pyruvate, MEM-EAGLE non-essential amino-acids, HEPES and Gentamycin. At the next stage 100 µl of 25×10^4 peptide-pulsed DC were added to each three wells of PBL and underwent proliferation analysis as described above. • 2. PBL direct presentation: In the 2nd method, 100 µl of 2×10^6 PBL were placed in Flat Bottom 96 well plates (Corning) and stimulated with different concentrations (0.05 ug/ml-2 ug/ml) of peptides. In the next step the cells underwent proliferation analysis as described above. • 3. PBMC direct presentation: In third method PNMC were used under similar conditions as described for the second method.
A different parameter for assessing the properties of ImMucin and the other VXL-peptide epitopes is by analyzing the time until a maximal peak of activity occurs and the optimal dose for maximal stimulation. Maximal peak of PBL activation is determined when <50% of the PBLs appear in clumps. In these experiments, the kinetic (time) in the proliferation of lymphocytes from the six naive donors stimulated at a fix dose of 0.05-1 ug/ml by ImMucin and other VXL-Peptides, was observed.

[5] = test system: PBL; experiment: ELISA of cytokine secretion by PBL stimulated once with peptide-pulsed DC
Method: Human PBMC were separated from buffy coat samples of naive donors using Ficoll UNI-SEPmaxi tube. Separated cells were suspended in RPMI medium supplemented with 10% FCS, L-Glutamine, Sodium Pyruvate, MEM-EAGLE non-essential amino-acids, HEPES and Gentamycin Sulphate (Bet-Haemek Industries, IL) and cultivated for 4 h at 37° C. in a culture dish (Corning 150 mm×25 mm). Adherent cells were collected and cultured for 7 days in serum free DCCM-1 medium supplemented with L-Glutamine, huIL-4 (1000 IU/ml) (Cytolab IL) and GM-CSF-80 ug/ml (Cytolab IL). On day seven floating cells were collected and loaded with 50 ug/ml of examined peptide for 18 h at 37° C.
Cytokine release was studied during the culture of stimulated T-cells. The evaluated samples were collected from the T cell culture medium on day 2, 3, and 5 and stored until use at −20° C.
[…] of the selected capture antibody (e.g. anti-Hu IFN-Gamma, or anti-Hu TNF-alfa or anti IL-2) were added to each well at the final concentration of 5 μg/ml in PBS. Plates were incubated for 2 h at R.T. or over night at 4° C. Next, […] of blocking solution were added for an incubation of 2 h at R.T. […] of evaluated samples were added in duplicate into 2 wells for 2 hours at RT. After 2 h of incubation at R.T plates were washed λ4 times in washing solution. In the next step, a Biotin-conjugated detection antibody (relevant to coated antibody) was added at a final concentration of 10 μg/ml in total volume of 100 μl for 1 h at R.T. Finally, 100 μl/well working dilution (1:10000 in Blocker solution) of Streptavidin-HRP were added to each well and incubated for 1 h at R.T.
Plates were washed λ6 times with PBS-Tween (0.4%) and 100 μl/well of TMB/E Solution (CHEMICON, Catalog #ES001) was added. The plates were then exposed until blue color appeared in the wells of the positive control and no color was detected in the blank wells. To stop the color reaction, 50 μl/well of 10% of Sulfuric acid was added. The plates were counted in ELISA-Reader using a 450 nm filter.

[6] = peptide DC ratio 16:1, one out of five experiments, six donors
[7] = peptide pulsed DC ratio 16:1, one out of two experiments, two donors (Table 12)

MTPGTQSPFFLLLLLTVLTVV [ImMucin]
blood samples in which ImMucin specific activation could be observed [1]: 12
PBL Index of stimulation (SI) Direct no APC ([2]; average of two healthy donors (Table 11)): 0
Optimal dose Direct no APC ([2]; optimal dose required for PBL activation, average of 5 experiments, six donors): No Influence
Peak of Proliferation (Hours) Direct no APC ([2]; visual inspection daily during 5 days, average of 5 experiments): No proliferation
increase in percentage of memory CD45RO+ cells ([3]; ImMucin activation): two fold
percentage of CD8+ T cells ([3]; after repeated stimulation with ImMucin, from 15% before): 36%
percentage of CD4+ T cells ([3]; after repeated stimulation with ImMucin, from 43% before): 85%
peak of proliferation / maximum stimulation [4]: ~96 h
IL-2 [5, 6]: 3.62 ng/mL
TNF-Alfa [5, 6]: 11.6 ng/mL
IFN-gamma [5, 7]: 0.5 ng/mL
TNF-Alfa [5, 7]: 11.6 ng/mL
